Results taken from patent US11433043B2, “Compounds useful for increasing neurogenesis in neural tissue” (ALFASIGMA S.P.A., priority 2010, dated 2022).

Experiments:
Format in all cases: cell-based
[1] = tested on: adult neural progenitors taken from the mouse hippocampus; assay: Cell survival: apoptotic nuclei (Hoechst staining) after differentiation
Method: (§1) After differentiation in the presence of ALC, a vehicle or reference drugs, the medium was collected and the activity of the LDH enzyme was determined using the Cytotoxicity Detection Kit LDH (Roche Applied Science), following the manufacturer's instructions, to quantify death due to necrosis. In parallel, to assess also apoptotic death, after fixation, the cell nuclei were marked with 0.8 ng/ml Hoechst (Sigma-Aldrich) diluted in PBS. The apoptic nuclei were counted by an operator (blind to the nature of the treatment undergone by the cells) using an ECLIPSE E600 fluorescence microscope (NIKON, Calenzano, Italy) with a 60× lens. All experiments were conducted on at least five cell preparations, with each experimental point in triplicate.

[2] = tested on: adult neural progenitors taken from the mouse hippocampus; assay: Cell survival: LDH enzyme activity in culture medium (necrosis)
Method: as §1

[3] = tested on: adult neural progenitors taken from the mouse hippocampus; assay: Differentiation of stem cells/adult neural progenitors from hippocampal neurospheres (MAP-2/nestin immunofluorescence); details: for NPC neuronal differentiation: compared to ALC 1 mM
Method: The adult stem cells from the mouse hippocampus were prepared and maintained in culture in the form of neurospheres as described previously in Denis-Donini S. et al. J. Neuroscience, 2008. In particular, male CD1 mice aged 3-5 months were used, in accordance with the animal experimentation laws.
For differentiation, the cells derived from the hippocampal neurospheres with passages of between 4-12 were dissociated and plated on Lab-Tek 8-well permanox chamber slides (Nunc, Wiesbaden, Germany) previously coated with mouse laminin (2.5 μg/cm^2 Sigma) at a density of about 40,000 cells/cm^2. The composition of the differentiation medium was: Neurobasal-A, supplement B27, glutamine 2 mM, 100 U/100 μg/ml penicillin/streptomycin. ALC (0.1-2 mM) or a vehicle was added to the medium. After 24 hours the cells were washed and fixed in 4% paraformaldehyde for 20 min for subsequent analysis using immunofluorescence.
The cells fixed after differentiation in the presence of ALC, a vehicle or reference drugs were washed three times in PBS and permeabilized by incubation for 5 min, at room temperature with PBS supplemented with 0.48% (vol/vol) Triton X-100 (Sigma). Subsequently the cells were incubated with the following primary antibodies: anti-nestin mouse monoclonal antibody, 1:1200, Abcam, Cambridge, Mass.); anti-MAP-2 (rabbit polyclonal antibody, 1:600, Chemicon). The cells were incubated in the primary antibody for 150 min at room temperature in a solution containing 8% (vol/vol) of goat serum. The secondary antibodies used were: Alexa Fluor 594-conjugated donkey anti mouse antibody (1:1400, Molecular Probes), Alexa Fluor 488-conjugated donkey anti-rabbit (1:1 600, Molecular Probes), in a solution containing 16% (vol/vol) of donkey serum. The nuclei were then counterstained with Draq5 (1:2000, Alexis Biochemicals) prepared in PBS. The slides were assembled using Fluorescent Mounting Medium (DakoCytomation, Glostrup).
In each experiment, the cells of at least 5 fields/well (corresponding to about 150 cells), were quantified if positive to one or more phenotypical markers used to distinguish between them: undifferentiated stem progenitor cells, immature neurons, mature neurons. The cells were counted by an operator (blind to the nature of the treatment undergone by the cells) using an ECLIPSE E600 fluorescence microscope (NIKON, Calenzano, Italy) with a 60× lens. All experiments were conducted on at least five cell preparations, with each experimental point in triplicate.

[4] = Example 1, ALC 0.1-2 mM, 24 hours, FIG. 5
[5] = at the concentrations that induced neurogenesis
[6] = Example 2, 0.3-1 mM, lesser extent compared to ALC 1 mM, FIG. 6

Compound | percentage of apoptotic nuclei ([1]; ALC 100 μM, 300 μM or 1 mM, FIG. 3) | activity of the LDH enzyme, an index of necrosis, in the culture medium ([2]; ALC 100 μM, 300 μM or 1 mM, FIG. 4) | percentage of MAP-2 positive cells in culture ([3]; Example 1, ALC 0.1-2 mM, 24 hours differentiation, concentration-dependent, FIG. 1) | number of immature neurons (MAP2 positive, nestin positive) [3, 4] | number of progenitor cells (MAP2 negative, nestin negative) [3, 4] | number of stem/progenitor cells (MAP2 negative, nestin positive) [3, 4] | number of mature neurons (MAP2 positive, nestin negative) ([3]; Example 1, ALC 0.1-2 mM, 24 hours, concentration-dependent, FIG. 5) | NPC neuronal differentiation ([3]; Example 2, 0.3-1 mM, FIG. 6) | percentage of apoptotic nuclei [1, 5] | activity of the LDH enzyme, an index of necrosis [2, 5] | number of a subpopulation of undifferentiated stem/neural progenitors [3, 6] | number of immature neurons [3, 6] | number of mature neurons [3, 6]
CC(=O)O[C@H](CC(=O)[O-])C[N+](C)(C)C [ALC, acetyl L-carnitine] | did not reduce | did not reduce | increase | increased | decreased | no effect | increased |  |  |  |  |  | 
C[N+](C)(C)C[C@H](O)CC(=O)[O-] [LC, L-carnitine] |  |  |  |  |  |  |  | no effect |  |  |  |  | 
CCC(=O)O[C@H](CC(=O)[O-])C[N+](C)(C)C [PLC, propionyl L-carnitine] |  |  |  |  |  |  |  | less potent activator | did not reduce | did not reduce | reduced | increased | increased
